Data published in ChEMBL document CHEMBL1138550, “Adamantane derivatives of thiazolyl-N-substituted amide, as possible non-steroidal anti-inflammatory agents” (2009).

Legend:
Rattus norvegicus = test: Antiinflammatory activity in AKR rat assessed as inhibition of carrageenan-induced right hind paw oedema at 0.2 mmol/kg, ip coadministered with carrageenan relative to control; assay type: functional
[1] = biological target: T1, Seed linoleate 13S-lipoxygenase-1 (Glycine max) (UniProt P08170); test: Inhibition of soybean LOX1 at 100 uM
T1 sequence (whole entry): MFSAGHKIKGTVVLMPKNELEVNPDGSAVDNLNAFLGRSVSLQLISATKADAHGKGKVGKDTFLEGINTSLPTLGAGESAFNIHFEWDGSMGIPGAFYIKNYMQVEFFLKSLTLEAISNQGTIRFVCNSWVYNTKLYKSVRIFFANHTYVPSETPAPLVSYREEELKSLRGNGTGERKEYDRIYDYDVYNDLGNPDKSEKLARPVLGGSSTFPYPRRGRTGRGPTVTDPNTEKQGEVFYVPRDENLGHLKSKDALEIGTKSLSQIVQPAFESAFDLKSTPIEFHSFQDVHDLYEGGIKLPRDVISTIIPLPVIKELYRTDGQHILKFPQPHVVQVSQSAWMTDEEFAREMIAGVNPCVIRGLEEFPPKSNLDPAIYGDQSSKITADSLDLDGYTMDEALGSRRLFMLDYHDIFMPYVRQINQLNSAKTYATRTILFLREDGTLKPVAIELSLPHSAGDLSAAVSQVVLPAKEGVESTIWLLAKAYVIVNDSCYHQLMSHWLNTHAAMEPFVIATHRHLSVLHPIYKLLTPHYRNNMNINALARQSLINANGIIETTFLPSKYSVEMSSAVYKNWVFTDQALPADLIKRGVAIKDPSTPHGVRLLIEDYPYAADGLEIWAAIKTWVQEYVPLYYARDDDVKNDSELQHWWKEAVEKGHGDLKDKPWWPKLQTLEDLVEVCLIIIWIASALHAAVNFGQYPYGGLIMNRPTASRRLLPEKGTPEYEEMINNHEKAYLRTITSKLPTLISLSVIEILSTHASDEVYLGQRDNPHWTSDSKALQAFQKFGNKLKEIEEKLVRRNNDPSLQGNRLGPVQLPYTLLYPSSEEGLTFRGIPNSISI

[2] = biological target: T2, Prostaglandin G/H synthase 1 (Ovis aries) (UniProt P05979); test: Inhibition of ovine COX1 at 200 uM by enzyme immuno assay
T2 sequence (whole entry): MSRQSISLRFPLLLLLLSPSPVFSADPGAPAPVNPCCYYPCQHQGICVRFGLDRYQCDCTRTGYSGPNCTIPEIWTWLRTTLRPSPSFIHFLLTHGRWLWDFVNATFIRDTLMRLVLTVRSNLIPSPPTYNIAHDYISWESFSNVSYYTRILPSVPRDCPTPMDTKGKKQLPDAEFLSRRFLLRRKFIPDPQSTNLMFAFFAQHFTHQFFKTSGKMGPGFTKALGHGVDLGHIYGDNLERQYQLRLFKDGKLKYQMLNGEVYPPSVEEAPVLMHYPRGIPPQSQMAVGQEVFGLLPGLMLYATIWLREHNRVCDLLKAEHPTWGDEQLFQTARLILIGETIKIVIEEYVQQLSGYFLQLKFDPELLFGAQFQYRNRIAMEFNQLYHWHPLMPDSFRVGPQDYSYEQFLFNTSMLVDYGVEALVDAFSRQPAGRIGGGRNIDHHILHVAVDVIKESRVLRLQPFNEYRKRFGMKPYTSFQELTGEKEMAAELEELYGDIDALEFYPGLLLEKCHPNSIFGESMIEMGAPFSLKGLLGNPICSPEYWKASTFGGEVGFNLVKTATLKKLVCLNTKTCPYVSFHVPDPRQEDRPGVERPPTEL

[3] = biological target: T3, Prostaglandin G/H synthase 2 (Homo sapiens) (UniProt P35354); test: Inhibition of human recombinant COX2 at 200 uM by enzyme immuno assay
T3 sequence (whole entry): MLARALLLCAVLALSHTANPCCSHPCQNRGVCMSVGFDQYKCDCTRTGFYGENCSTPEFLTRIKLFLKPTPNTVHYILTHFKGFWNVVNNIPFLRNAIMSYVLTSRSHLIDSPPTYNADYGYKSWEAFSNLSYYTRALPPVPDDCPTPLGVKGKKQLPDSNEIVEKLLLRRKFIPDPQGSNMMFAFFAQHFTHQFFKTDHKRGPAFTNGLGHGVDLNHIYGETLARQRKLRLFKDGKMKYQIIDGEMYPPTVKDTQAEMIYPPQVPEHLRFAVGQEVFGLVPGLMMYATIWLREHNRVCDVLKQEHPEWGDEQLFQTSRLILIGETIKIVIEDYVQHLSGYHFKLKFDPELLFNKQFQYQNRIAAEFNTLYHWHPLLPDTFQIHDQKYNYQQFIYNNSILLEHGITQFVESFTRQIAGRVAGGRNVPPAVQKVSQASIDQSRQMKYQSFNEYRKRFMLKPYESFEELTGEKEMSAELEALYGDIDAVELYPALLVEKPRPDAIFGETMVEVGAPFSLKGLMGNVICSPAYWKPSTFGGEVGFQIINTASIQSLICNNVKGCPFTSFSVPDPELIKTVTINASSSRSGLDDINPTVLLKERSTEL

[4] = biological target: T3, Prostaglandin G/H synthase 2 (Homo sapiens); test: Inhibition of human recombinant COX2 at 20 uM by enzyme immuno assay
[5] = biological target: T2, Prostaglandin G/H synthase 1 (Ovis aries); test: Inhibition of ovine COX1 at 20 uM by enzyme immuno assay

Row | inhibition [1] [%] | Compound | inhibition in vivo at 200 µmol/kg (Rattus norvegicus) [%] | further results
1 |  | O=C(CCN1CCCC1)Nc1nccs1 | 64.1 | 
2 |  | O=C(CN1CCCC1)Nc1nc(-c2ccccc2)cs1 | 49.2 | 
3 |  | O=C(CCN1CCCC1)Nc1nc(-c2ccccc2)cs1 | 68.4 | 
4 | 8.4 | O=C(CCN1CCOCC1)Nc1nc(C23CC4CC(CC(C4)C2)C3)cs1 | 49.2 | 
5 |  | COc1ccc(-c2csc(NC(=O)CN3CCCCC3)n2)cc1 | 53.3 | 
6 |  | COc1ccc(-c2csc(NC(=O)CN(C)C)n2)cc1 | 35 | 
7 |  | Cc1csc(NC(=O)CN(C)C)n1 | 37.6 | 
8 |  | O=C(CCN1CCCC1)Nc1nc(C23CC4CC(CC(C4)C2)C3)cs1 | 36.8 | 
9 | 0 | O=C(CN1CCOCC1)Nc1nc(C23CC4CC(CC(C4)C2)C3)cs1 | 57.8 | inhibition [2]: 27.9%; inhibition [3]: 35.3%
10 |  | CN(C)CC(=O)Nc1nccs1 | 28.4 | 
11 |  | CN1CCN(CC(=O)Nc2nc(C34CC5CC(CC(C5)C3)C4)cs2)CC1 | 30 | 
12 | 33 | O=C(CN1CCN(c2ccccc2)CC1)Nc1nc(C23CC4CC(CC(C4)C2)C3)cs1 | 47.6 | inhibition [2]: 43.6%; inhibition [3]: 15.8%
13 | 1 | CN(C)CCC(=O)Nc1nc(C23CC4CC(CC(C4)C2)C3)cs1 | 81.5 | inhibition [2]: 25%; inhibition [3]: 8.6%
14 |  | CN(C)CC(=O)Nc1nc(-c2ccccc2)cs1 | 52 | 
15 | 39 | O=C(CCN1CCN(c2ccccc2)CC1)Nc1nc(C23CC4CC(CC(C4)C2)C3)cs1 | 55.9 | inhibition [4]: 17.3%; inhibition [5]: 28.6%
16 |  | COc1ccc(-c2csc(NC(=O)CCN3CCOCC3)n2)cc1 | 55.4 | 
17 | 26.4 | CN(C)CC(=O)Nc1nc(C23CC4CC(CC(C4)C2)C3)cs1 | 48 | inhibition [2]: 25%; inhibition [3]: 3.6%
18 | 0 | O=C(CN1CCCCC1)Nc1nc(C23CC4CC(CC(C4)C2)C3)cs1 | 26.6 | 
19 |  | O=C(CN1CCN(c2ccccc2)CC1)Nc1nccs1 | 72.1 | 
20 |  | COc1ccc(-c2csc(NC(=O)CN3CCCC3)n2)cc1 | 55 | 
21 |  | COc1ccc(-c2csc(NC(=O)CCN3CCCC3)n2)cc1 | 56.2 | 
22 | 5 | O=C(CN1CCCC1)Nc1nc(C23CC4CC(CC(C4)C2)C3)cs1 | 69.7 | inhibition [2]: 33.6%; inhibition [3]: 12.2%
